# Target: c-Myc template DNA (c-myc quadruplex)
# Test: Quadruplex binding / stop assay (Taq polymerase arrest, capillary electrophoresis)
# Details: read-out: S DATA; Table 1D, stop assay data
row,IC50 [µM],SMILES
1,> 15,CCN(CC)CCCC(C)NC(=O)c1cn2c3c(c(N4CC5CCCNC5C4)ccc3c1=O)Oc1cc3ccccc3cc1-2 (stereo not drawn) [compound 1733]
2,1.75,CN1CCCC1CCNC(=O)c1cn2c3c(c(NCCCN4CCOCC4)ccc3c1=O)Oc1cc3ccccc3cc1-2 (stereo not drawn) [compound 1529]
3,> 15,CC(C)N1CCN(c2c(F)cc3c(=O)c(C(=O)N4CCC(N)C4)cn4c3c2Oc2ccccc2-4)CC1 (stereo not drawn) [compound 1627]
4,1.75,CN1CCCC1CCNC(=O)c1cn2c3c(c(NCCCCO)c(F)cc3c1=O)Oc1cc3ccccc3cc1-2 (stereo not drawn) [compound 1661]
5,> 15,CC(C)N1CCN(c2c(F)cc3c(=O)c(C(=O)NCCN4CCOCC4)cn4c3c2Oc2ccc(Cl)cc2-4)CC1 [compound 1804]
6,> 15,C[C@H](O)CNC(=O)c1cn2c3c(c(N4CCC(N)C4)c(F)cc3c1=O)Oc1cc3ccccc3cc1-2 (stereo partly drawn) [compound 1709]
7,8,CC(C)N1CCN(c2c(F)cc3c(=O)c(C(=O)NCCN4CCCC4)cn4c3c2Oc2cc(Cl)ccc2-4)CC1 [compound 1797]
8,0.75,NCCCNC(=O)c1cn2c3c(c(N4CCC(N)C4)c(F)cc3c1=O)Oc1cc3ccccc3cc1-2 (stereo not drawn) [compound 1716]
9,> 15,CN1CCN(CCCNc2c(F)cc3c(=O)c(C(=O)N4CCC(NC(=O)OC(C)(C)C)C4)cn4c3c2Oc2ccccc2-4)CC1 (stereo not drawn) [compound 1574]
10,7.8,CN1CCCC1CCNC(=O)c1cn2c3c(c(N4CCN(c5ncccn5)CC4)c(F)cc3c1=O)Oc1cc(Cl)ccc1-2 (stereo not drawn) [compound 1810]
11,> 15,CC(C)N1CCN(c2c(F)cc3c(=O)c(C(=O)NCC(C)(C)CN(C)C)cn4c3c2Oc2ccccc2-4)CC1 [compound 1568]
12,0.75,CN1CCN(CCCNC(=O)c2cn3c4c(c(N5CC6CCCNC6C5)c(F)cc4c2=O)Oc2cc4ccccc4cc2-3)CC1 (stereo not drawn) [compound 1641]
13,2.25,CN1CCCC1CCNC(=O)c1cn2c3c(c(F)c(F)cc3c1=O)Oc1cc3ccccc3cc1-2 (stereo not drawn) [compound 1738]

# More lines, now with the values behind:
row,SMILES,IC50 [µM]
1,CC(C)N1CCN(c2c(F)cc3c(=O)c(C(=O)N4CCC(NC(=O)OC(C)(C)C)C4)cn4c3c2Oc2ccccc2-4)CC1 (stereo not drawn) [compound 1564],> 15
2,CC(C)(C)OC(=O)NC1CCN(c2ccc3c(=O)c(C(=O)NCCCN4CCOCC4)cn4c3c2Oc2cc3ccccc3cc2-4)C1 (stereo not drawn) [compound 1536],> 15
3,O=C(NCCN1CCOCC1)c1cn2c3c(c(SCCc4cnccn4)c(F)cc3c1=O)Oc1cc(Cl)ccc1-2 [compound 1788],> 15
4,CN1CCCC1CCNC(=O)c1cn2c3c(c(N4CCC(N5CCCC5)CC4)c(F)cc3c1=O)Oc1cc3ccccc3cc1-2 (stereo not drawn) [compound 1492],0.75
5,CC1CCCN(CCCNc2c(F)cc3c(=O)c(C(=O)NCCC4CCCN4C)cn4c3c2Oc2cc3ccccc3cc2-4)C1 (stereo not drawn) [compound 1685],1.75
6,CN(C)CC(C)(C)CNC(=O)c1cn2c3c(c(NCCN4CCOCC4)c(F)cc3c1=O)Oc1ccccc1-2 [compound 1612],> 15
7,CN1CCN(CCCNc2c(F)cc3c(=O)c(C(=O)NCCCCNC(=N)N)cn4c3c2Oc2ccccc2-4)CC1 [compound 1631],> 15
8,CC1CCCC(C)N1CCCNc1c(F)cc2c(=O)c(C(=O)NCCC3CCCN3C)cn3c2c1Oc1cc2ccccc2cc1-3 (stereo not drawn) [compound 1687],1.75
9,CN1CCCC1CCNC(=O)c1cn2c3c(c(S(=O)(=O)CCc4cnccn4)c(F)cc3c1=O)Oc1cc3ccccc3cc1-2 (stereo not drawn) [compound 1768],0.92
10,CN1CCN(CCCNc2c(F)cc3c(=O)c(C(=O)NCCC4CCCN4C)cn4c3c2Oc2ccccc2-4)CC1 (stereo not drawn) [compound 1576],> 15
11,CN1CCCC1CCNC(=O)c1cn2c3c(c(N4CCNC(c5cccnc5)C4)c(F)cc3c1=O)Oc1cc3ccccc3cc1-2 (stereo not drawn) [compound 1513],1.75
12,CN1CCCC1CCNc1ccc2c(=O)c(C(=O)NCCCN3CCOCC3)cn3c2c1Oc1cc2ccccc2cc1-3 (stereo not drawn) [compound 1524],1.75
13,CN1CCCC1CCNC(=O)c1cn2c3c(c(NCCc4c[nH]c5ccccc45)c(F)cc3c1=O)Oc1cc3ccccc3cc1-2 (stereo not drawn) [compound 1666],1.75
14,CN1CCCC1CCNC(=O)c1cn2c3c(c(N4CCC(c5cnccn5)C4)c(F)cc3c1=O)Oc1ccc(C(N)=O)cc1-2 (stereo not drawn) [compound 1773],6.1

# Same assay, conditions: read-out: Stop Data c-Myc μM; concentration at which 50% of the DNA was arrested (arrested:full-length 1:1)
row,IC50 [µM],SMILES
1,1.75,O=C(NCCCN1CCOCC1)c1cn2c3cc4c(cc3oc3c(NCCCN5CCOCC5)c(F)cc(c1=O)c32)c(=O)c1ccccc14 [compound 203]
2,1.75,CN1CCCC1CCNC(=O)c1cn2c3c(c(N4CCC(N)C4)c(F)c(N)c3c1=O)Oc1cc3ccccc3cc1-2 (stereo not drawn) [compound 234]
3,1.75,NC1CCN(c2c(F)cc3c(=O)c(C(=O)NN4CCCCC4)cn4c3c2Oc2cc3ccccc3cc2-4)C1 (stereo not drawn) [compound 244]
4,0.9,COC(=O)C(CO)NC(=O)c1cn2c3cc4c(=O)c5ccccc5c(=O)c4cc3oc3c(NCCN4CCCC4)c(F)cc(c1=O)c32 (stereo not drawn) [compound 345]
5,1.76,CN(C)CCCCNc1c(F)cc2c(=O)c(C(=O)O)cn3c2c1Oc1c-3ccc2ccccc12 [compound 4]
6,0.9,CN1CCCC1CCNC(=O)c1cn2c3cc4c(=O)c5ccccc5c(=O)c4cc3oc3c(NCCCN4CCOCC4)c(F)cc(c1=O)c32 (stereo not drawn) [compound 348]
7,2.5,CN1CCN(CCCNC(=O)c2cn3c4cc5c(=O)c6ccccc6c(=O)c5cc4oc4c(N5CCC(N)C5)c(F)cc(c2=O)c43)CC1 (stereo not drawn) [compound 91]
8,0.9,CN(C)CCNC(=O)c1cn2c3cc4c(=O)c5ccccc5c(=O)c4cc3oc3c(N4CCN(C)CC4)c(F)cc(c1=O)c32 [compound 353]
9,1.75,CN1CCN(CCCNc2c(F)cc3c(=O)c(C(=O)NCCN4CCOCC4)cn4c3c2Oc2cc3c(cc2-4)oc2ccccc23)CC1 [compound 150]
10,1.75,CN1CCN(CCCNc2ccc3c(=O)c(C(=O)NCCN4CCOCC4)cn4c3c2Oc2cc3ccccc3cc2-4)CC1 [compound 279]
11,2.5,CN1CCCN(c2c(F)cc3c(=O)c(C(=O)N4CCOCC4)cn4c3c2Oc2cc3ccccc3cc2-4)CC1 [compound 41]
12,1.75,O=C(c1cn2c3c(c(NCCN4CCCCC4)c(F)cc3c1=O)Oc1cc3ccccc3cc1-2)N1CCOCC1 [compound 115]
13,1.75,CC(C)(C)OC(=O)NC1CCN(c2c(F)c(N)c3c(=O)c(C(=O)O)cn4c3c2Oc2cc3ccccc3cc2-4)C1 (stereo not drawn) [compound 15]
14,1,O=C(Nc1ccncc1)c1cn2c3c(c(NCCCN4CCOCC4)c(F)cc3c1=O)Oc1cc3c(cc1-2)oc1ccccc13 [compound 315]
15,1.75,CN(C)CCCCNc1c(F)cc2c(=O)c(C(=O)NCCCN3CCOCC3)cn3c2c1Oc1cc2c(cc1-3)oc1ccccc12 [compound 162]
16,1.75,CN(C)CCC(=O)N[C@@H]1CCN(c2c(F)cc3c(=O)c(C(=O)NCCCN4CCN(C)CC4)cn4c3c2Oc2cc3c(cc2-4)oc2ccccc23)C1 [compound 175]
17,1.75,CC(C)(C)OC(=O)N[C@H]1CCN(c2c(F)cc3c(=O)c(C(=O)NCCCN4CCOCC4)cn4c5cc6c(cc5oc2c34)c(=O)c2ccccc26)C1 [compound 204]

# The remaining lines, values behind:
row,SMILES,IC50 [µM]
1,CN1CCN(CCCNC(=O)c2cn3c4cc5c(=O)c6ccccc6c(=O)c5cc4oc4c(NCCN5CCCC5)c(F)cc(c2=O)c43)CC1 [compound 491],0.45
2,CN1CCC(NC(=O)c2cn3c4c(c(N5CCC(N)C5)c(F)cc4c2=O)Oc2cc4ccccc4cc2-3)CC1 (stereo not drawn) [compound 467],0.75
3,CN(C)CCCCNc1c(F)cc2c(=O)c(C(=O)NCCCN3CCOCC3)cn3c2c1Oc1c-3ccc2ccccc12 [compound 400],0.75
4,O=C(NCCN1CCCC1)c1cn2c3cc4c(cc3oc3c(NCCCN5CCOCC5)c(F)cc(c1=O)c32)c(=O)c1ccccc14 [compound 418],0.75
5,CN1CCN(CCCNC(=O)c2cn3c4c(c(NCCC5CCCN5C)c(F)cc4c2=O)Oc2cc4ccccc4cc2-3)CC1 (stereo not drawn) [compound 123],1.75
6,CN(C)/C=N/CCCCNC(=O)c1cn2c3c(c(N4CC[C@@H](NC(=O)OC(C)(C)C)C4)c(F)cc3c1=O)Oc1cc3ccccc3cc1-2 [compound 212],1.75
7,O=C(NCCCn1ccnc1)c1cn2c3c(c(NCCCN4CCOCC4)c(F)cc3c1=O)Oc1cc3c(cc1-2)-c1ccccc1C3 [compound 314],1
8,CN1CCCC1CCNC(=O)c1cn2c3c(c(NCCCNC(=O)OC(C)(C)C)c(F)cc3c1=O)Oc1cc3ccccc3cc1-2 (stereo not drawn) [compound 297],1.75
9,CC(C)(C)OC(=O)N[C@@H]1CCN(c2c(F)cc3c(=O)c(C(=O)NCCN4CCCC4)cn4c3c2Oc2c-4ccc3ccccc23)C1 [compound 133],1.75
10,CN1CCN(CCCNC(=O)c2cn3c4c(c(N5CC[C@@H](NC(=O)CCN6CCCC6)C5)c(F)cc4c2=O)Oc2cc4c(cc2-3)oc2ccccc24)CC1 [compound 174],1.75
11,CN1CCN(CCCNC(=O)c2cn3c4cc5c(=O)c6ccccc6c(=O)c5cc4oc4c(NCCCN5CCN(C)CC5)c(F)cc(c2=O)c43)CC1 [compound 350],0.9
12,CN1CCCC1CCNC(=O)c1cn2c3c(c(NCCN4CCOCC4)c(F)cc3c1=O)Oc1c-2ccc2ccccc12 (stereo not drawn) [compound 131],1.75
13,CN(C)CCCCNc1ccc2c(=O)c(C(=O)NC3CC(C)(C)NC(C)(C)C3)cn3c2c1Oc1cc2ccccc2cc1-3 [compound 276],1.75
14,CN(C)CCCCNc1c(F)cc2c(=O)c(C(=O)NCCC3CCCN3C)cn3c4cc5c(=O)c6ccccc6c(=O)c5cc4oc1c23 (stereo not drawn) [compound 354],0.9
15,CN(C)CCCCNc1c(F)cc2c(=O)c(C(=O)NCCCN3CCOCC3)cn3c4cc5oc6cc([N+](=O)[O-])ccc6[nH]c5cc4oc1c23 [compound 556],0.375
16,Nc1ccc2[nH]c3cc4oc5c(N6CC[C@H](N)C6)c(F)cc6c(=O)c(C(=O)O)cn(c4cc3oc2c1)c56 [compound 11],1.75
17,CN1CCN(CCCNC(=O)c2cn3c4cc5c(=O)c6ccccc6c(=O)c5cc4oc4c(F)c(F)cc(c2=O)c43)CC1 [compound 344],0.9
18,CN1CCCC1CCNC(=O)c1cn2c3c(c(NCCCCN4CCCC4)c(F)cc3c1=O)Oc1cc3ccccc3cc1-2 (stereo not drawn) [compound 440],0.75
19,CN1CCCC1CCNC(=O)c1cn2c3c(c(NCCN4CCOCC4)c(F)cc3c1=O)Oc1cc3ccccc3cc1-2 (stereo not drawn) [compound 57],2.5
